Read-outs that look alike come from different tables or passages of the source. Blank lines part the entries; values can stand above or below the compound they belong to. Bridge positions count the residues as written; N and C are the ends. Square brackets hold non-standard residues; d marks the D form. Triazole bridges read from a SMILES are 1,4-linked. Ends that are not written are not given here. Peptide text beside a SMILES is read from it. * marks the point of attachment. ξ: configuration not given here. Biotinyl(3aR,4R,6aS) = O=C1N[C@@H]2[C@@H](CS[C@@H]2CCCCC(=O)*)N1; Biotinyl(4ξ) = O=C1N[C@H]2CSC(CCCCC(=O)*)[C@H]2N1; dTrp(1-Me) = Cn1cc(C[C@@H](N)C(=O)O)c2ccccc21; NMeLys(N3) = CN[C@@H](CCCCN=[N+]=[N-])C(=O)O; X1 = O=C(CSc1nonc1/C(=N/O)Nc1ccc(F)c(Br)c1)*; Trp(1-Me) = Cn1cc(C[C@H](N)C(=O)O)c2ccccc21; X5 = O=C1N[C@@H]2CSC(CCCCC(=O)*)[C@@H]2N1; Lys(N3) = [N-]=[N+]=NCCCC[C@H](N)C(=O)O; Phe(4-F) = N[C@@H](Cc1ccc(F)cc1)C(=O)O; X4 = O=C1NC2CS[C@@H](CCCCC(=O)*)C2N1; PEG6 = NCCOCCOCCOCCOCCOCCOCCC(=O)O; PEG4 = NCCOCCOCCOCCOCCC(=O)O; AEEEA = NCCOCCOCCOCC(=O)O; Pra = C#CC[C@H](N)C(=O)O
Assays:
[1] = target: T1, His-tagged IDO1 human recombinant protein (Homo sapiens, UniProt P14902); assay: IDO1 ELISA (Affinity Assay): sandwich ELISA, biotinylated ligand immobilized on NEUTRAVIDIN plate; assay type: binding
T1 construct: purchased BPS Biosciences 71182
Procedure: Protocol: A black 96-well NEUTRAVIDIN® Coated High Binding Capacity plate (15510, Pierce) was coated with 2 μM biotinylated macrocyclic peptide ligand in TBS (25 mM Tris-HCl, 150 mM NaCl, pH 7.6) for 2 h at room temperature. The plate was aspirated and then washed with Wash Buffer (0.05% (v/v) TWEEN® 20 in PBS, 6×). His-tagged IDO1 human recombinant protein (71182, BPS Biosciences) was serially diluted in Wash Buffer (from 200 to 0 nM) and incubated in the designated microwells for 1 h at room temperature. Microwells were aspirated and subsequently washed with Wash Buffer (11×). To detect the bound IDO1 protein, Alkaline Phosphatase (AP)-conjugated Anti-6×HIS TAG® antibody [HIS-1] (ab49746, Abcam) was prepared at 1:10,000 dilution and added to the microwells for 1 h at room temperature. The plate was aspirated and washed with Wash Buffer (5×). ATTOPHOS® AP Fluorescent Substrate System (S1000, Promega) was employed to develop the microwells. Using an excitation wavelength of 430 nm, fluorescent emission at 535 nm was recorded by Beckman Coulter DTX880 photometer. Titration curves were fit using a four-parameter regression curve fitting program to determine EC50 values.
For these assays, a dilution series of His-tagged IDO1 human recombinant protein was captured using the macrocyclic peptide ligands immobilized on a NEUTRAVIDIN®-coated plate. […] The sequences of the peptide ligands are listed in Table 1, where D-amino acids are denoted in lowercase, Me-Trp=1-methyl-L-tryptophan, and F-Phe=4-fluoro-L-phenylalanine. Chemical structures are shown below Table 1.
The D-alanine substituted, biotin-PEG3-modified macrocycles were tested in the IDO1 ELISA (Affinity assay). For these assays, a dilution series of His-tagged IDO1 human recombinant protein was captured using macrocycles immobilized on a NEUTRAVIDIN®-coated plate.

[2] = target: T2, recombinant human IDO1 (Homo sapiens, UniProt P14902); assay: IDO1 Fluorogenic Inhibitor Screening Assay (enzyme inhibition); assay type: biochemical
T2 construct: purchased BPS Biosciences 72037
Procedure: The IDO1 Fluorogenic Inhibitor Screening Assay Kit (72037, BPS Biosciences) was used to measure the enzyme inhibition of human IDO1 in the presence of macrocyclic peptide ligands. IDO1 catalyzes the conversion of the essential amino acid L-tryptophan (L-Trp) to N-formylkynurenine (NFK). In the assay, the test inhibitor and enzyme were added to a sample containing L-Trp substrate. After incubation for 1 h at room temperature, 20 μL Fluorescence Solution was added and incubated at 37° C. for 4 h to produce a fluorescent product. Activity was measured by reading sample fluorescence at λ=510 nm following excitation of the reaction product at λ=400 nm.

T2 sequence (P14902 whole entry): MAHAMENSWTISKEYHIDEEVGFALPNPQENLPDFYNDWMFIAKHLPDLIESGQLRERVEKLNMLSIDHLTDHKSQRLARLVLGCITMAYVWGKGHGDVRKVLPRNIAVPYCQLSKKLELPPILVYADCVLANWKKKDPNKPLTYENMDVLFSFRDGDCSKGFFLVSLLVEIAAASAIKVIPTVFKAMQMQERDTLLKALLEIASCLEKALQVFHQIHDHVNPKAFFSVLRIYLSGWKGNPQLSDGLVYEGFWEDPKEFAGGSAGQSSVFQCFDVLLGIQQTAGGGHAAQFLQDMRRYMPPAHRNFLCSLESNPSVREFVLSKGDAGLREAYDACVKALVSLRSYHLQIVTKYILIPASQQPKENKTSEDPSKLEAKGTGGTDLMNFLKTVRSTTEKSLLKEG
T1 sequence (P14902 whole entry): as above

EC50 ([1]; 2 μM biotinylated macrocycle immobilized, human IDO1 titrated 200 to 0 nM, read-out: EC50, sandwich ELISA for human IDO1 protein against biotin-PEG3-modified macrocycle): 124 nM | EC50 ([1]; Example 9, read-out: Binding affinity (EC50) of prioritized Epitope 1 hits): 124 nM
Compound: Cn1cc(C[C@H]2NC(=O)[C@@H](CCCNC(=N)N)NC(=O)[C@@H](Cc3ccccc3)NC(=O)[C@@H](CO)NC(=O)[C@@H](CC(N)=O)NC(=O)[C@@H](NC(=O)COCCOCCOCCNC(=O)CCCC[C@@H]3SCC4NC(=O)NC43)Cc3cn(nn3)CCCC[C@@H](C(N)=O)NC2=O)c2ccccc21 (stereo partly shown) [nsfr(Me-Trp), biotin-PEG3-Cy(nsfr(Me-Trp))] ({X4-AEEEA}-[Pra][dN][dS][dF][dR][dTrp(1-Me)][Lys(N3)]-NH2; triazole 1-7)

IC50 ([2]; N-methylated heterobiligands, PEG6 linker, read-out: IC50): 622 nM | IC50 ([2]; Table 15, read-out: Inhibition Recombinant IDO1 IC50): 622 nM
Compound: CC(C)[C@H]1NC(=O)[C@@H](Cc2ccc(O)cc2)NC(=O)[C@@H](Cc2c[nH]c3ccccc23)NC(=O)[C@@H](NC(=O)CCOCCOCCOCCOCCOCCOCCNC(=O)CSc2nonc2/C(=N/O)Nc2ccc(F)c(Br)c2)Cc2cn(nn2)CCCC[C@@H](C(N)=O)N(C)C(=O)[C@@H](Cc2ccc(O)cc2)NC(=O)[C@@H](C)NC1=O [Inh-PEG6-wyvay(N-Me)] ({X1-PEG6}-[Pra][dW][dY][dV][dA][dY][NMeLys(N3)]-NH2; triazole 1-7)

Compound: C[C@H]1NC(=O)[C@@H](Cc2ccccc2)NC(=O)[C@@H](CCCNC(=N)N)NC(=O)[C@@H](Cc2ccccc2)NC(=O)[C@@H](NC(=O)COCCOCCOCCNC(=O)CCCCC2SC[C@@H]3NC(=O)N[C@H]23)Cc2cn(nn2)CCCC[C@@H](C(N)=O)NC(=O)[C@@H](CO)NC1=O (stereo partly shown) [frfas, Biotin-PEG3-Cy(frfas)] ({Biotinyl(4ξ)-AEEEA}-[Pra][dF][dR][dF][dA][dS][Lys(N3)]-NH2; triazole 1-7)
Binding to human IDO1 by ELISA, in words [1]: weakest binding to IDO1

Compound: C[C@H]1NC(=O)[C@@H](CCCNC(=N)N)NC(=O)[C@@H](Cc2ccc(O)cc2)NC(=O)[C@@H](NC(=O)COCCOCCOCCNC(=O)CCCC[C@H]2SC[C@H]3NC(=O)N[C@H]32)Cc2cn(nn2)CCCC[C@@H](C(N)=O)NC(=O)[C@@H](Cc2ccc(O)cc2)NC1=O [yray, Biotin-PEG3-Cy(yray)] ({Biotinyl(3aR,4R,6aS)-AEEEA}-[Pra][dY][dR][dA][dY][Lys(N3)]-NH2; triazole 1-6)
Binding to human IDO1 by ELISA, in words [1]: less potent binders

EC50 ([1]; binding analysis of VHL-linked Epitope 2 ligand, read-out: EC50): 30 nM
Compound: nlf(Me-Trp)(F-Phe)-Ge-VHL: Epitope 2 peptide ligand linked to VHL E3 ligase ligand ([dN][dL][dF][Trp(1-Me)][Phe(4-F)]; also: Ge linker to VHL E3 ligase ligand)

Compound: CC(C)[C@H]1NC(=O)[C@@H](Cc2ccc(O)cc2)NC(=O)[C@@H](Cc2c[nH]c3ccccc23)NC(=O)[C@@H](NC(=O)CNC(=O)CNC(=O)CSc2nonc2/C(=N/O)Nc2ccc(F)c(Br)c2)Cc2cn(nn2)CCCC[C@@H](C(N)=O)NC(=O)[C@@H](Cc2ccc(O)cc2)NC(=O)[C@@H](C)NC1=O [Deprotected-Inh-Gly2-wyvay] (X1-GG[Pra][dW][dY][dV][dA][dY][Lys(N3)]-NH2; triazole 3-9)
IDO1 inhibition potency relative to the small molecule (Inh) alone, in words [2]: less active than the small molecule alone

Compound: CC(C)C[C@H]1NC(=O)[C@@H](NC(=O)COCCOCCOCCNC(=O)CCCCC2SC[C@H]3NC(=O)N[C@@H]23)Cc2cn(nn2)CCCC[C@@H](C(N)=O)NC(=O)[C@H](Cc2ccc(F)cc2)NC(=O)[C@H](Cc2cn(C)c3ccccc23)NC(=O)[C@@H](Cc2ccccc2)NC1=O (stereo partly drawn) [lf(Me-Trp)(F-Phe), Biotin-PEG3-Cy(lf(Me-Trp)(F-Phe))] ({X5-AEEEA}-[Pra][dL][dF][Trp(1-Me)][Phe(4-F)][Lys(N3)]-NH2; triazole 1-6)
Binding to human IDO1 by ELISA, in words [1]: slight decrease in binding affinity

Compound: N=C(N)NCCC[C@H]1NC(=O)[C@@H](Cc2ccc(O)cc2)NC(=O)[C@@H](Cc2c[nH]c3ccccc23)NC(=O)[C@@H](NC(=O)CCOCCOCCOCCOCCNC(=O)CSc2nonc2/C(=N/O)Nc2ccc(F)c(Br)c2)Cc2cn(nn2)CCCC[C@@H](C(N)=O)NC(=O)[C@@H](Cc2ccc(O)cc2)NC1=O [Inh-PEG4-wyry] ({X1-PEG4}-[Pra][dW][dY][dR][dY][Lys(N3)]-NH2; triazole 1-6)
IDO1 inhibition potency relative to the small molecule (Inh) alone, in words [2]: equal in potency

From patent US12216122B2, “Compositions and methods relating to detection, inhibition, and imaging of indoleamine 2,3-dioxygenase 1 (IDO1)” (Regeneron Pharmaceuticals, Inc., priority 2019, dated 2025)
